Source: patent US3935255A, “Phenylacetic acid derivatives” (Laboratoires Jacques Logeais, priority 1973, dated 1976)
Like-named read-outs stand apart in the source and are kept apart here.

Columns and labels:
[1] = Koster test (analgesic action); type: in vivo; conditions: po
Excerpt: (§1) Said properties were evidenced in animals by means of conventional pharmacological tests.
Analgesic action: Koster test (cf. KOSTER and ANDERSON. Feder. Proceed., 1959, 18, 412)

[2] = system: fever induced by injection of barm; assay: Antipyretic action against fever induced by injection of barm, in rats; type: in vivo; conditions: p.o.
Excerpt: as §1
Antipyretic action, against fever induced by injection of barm, in rats.

[3] = system: carrageenin-induced edema; assay: Carrageenin-induced edema in rats (anti-inflammatory action); type: in vivo; conditions: Rattus norvegicus, po
Excerpt: as §1
(§2) Anti-inflammatory action:
carrageenin-induced edema in rats (cf. WINTER, RISLEY and MUSS, Proc. Soc. Exp. Biol. Med., 1962, 111, 544),

LD50 (acute toxicity) = conditions: in vivo
[4] = system: ultraviolet-induced erythema; assay: Ultraviolet-induced erythema in guinea-pigs (anti-inflammatory action); type: in vivo; conditions: Cavia porcellus, po, read-out: UV-induced erythema ED50
Excerpt: as §1, §2
ultraviolet-induced erythema in guinea-pigs (cf. WINTER, Arch. Int. Pharmaco., 1958, 116, 261),

[5] = system: adjuvant-induced polyarthritis; assay: Adjuvant-induced polyarthritis in rats (anti-inflammatory action); type: in vivo; conditions: Rattus norvegicus, 336 h, p.o., oral dosage which decreases by at least 50% the manifestations of arthritis within 14 days
Excerpt: as §1, §2
adjuvant-induced polyarthritis in rats, determination of the oral dosage (mg/kg/day) which decreases by at least 50% the manifestations of arthritis within 14 days.

Structure (SMILES)	ED50 [1] [mg/kg]	Antipyretic action [2] [mg·kg]	ED40 [3] [mg/kg]	LD50 (LD50 (acute toxicity); ip, I.P., read-out: LD50 I.P.) [mg/kg]	LD50 (LD50 (acute toxicity); po, P.O., read-out: LD50 P.O.) [mg/kg]	ED50 [4] [mg/kg]	ED50 [5] [mg/kg]
CC(C(=O)O)c1ccc(C2=CC(=NO)CCC2)cc1 (stereo not drawn) [Example 1, 2-[4-(3'-Hydroxyimino-cyclohexen-1'-yl)-phenyl]propionic acid]	30 to 50	30	2.2	> 100	> 100	–	–
CC(C(=O)O)c1ccc(C2CCCC(=NO)C2)cc1 (stereo not drawn) [Example 2, 2-[4-(3'-Hydroxyimino-cyclohexyl)phenyl]propionic acid]	4.5	3	0.25	> 200	> 200	2	0.9
